In this test the target is T1, sGC α1/β1 heterodimer (Homo sapiens, UniProt Q02108+Q02153).
T1 construct: expressed in transfected cells; host or cells: CHO-K1 (clone #7, CHO-K1/sGC)
T1 sequence (Q02108 1-690): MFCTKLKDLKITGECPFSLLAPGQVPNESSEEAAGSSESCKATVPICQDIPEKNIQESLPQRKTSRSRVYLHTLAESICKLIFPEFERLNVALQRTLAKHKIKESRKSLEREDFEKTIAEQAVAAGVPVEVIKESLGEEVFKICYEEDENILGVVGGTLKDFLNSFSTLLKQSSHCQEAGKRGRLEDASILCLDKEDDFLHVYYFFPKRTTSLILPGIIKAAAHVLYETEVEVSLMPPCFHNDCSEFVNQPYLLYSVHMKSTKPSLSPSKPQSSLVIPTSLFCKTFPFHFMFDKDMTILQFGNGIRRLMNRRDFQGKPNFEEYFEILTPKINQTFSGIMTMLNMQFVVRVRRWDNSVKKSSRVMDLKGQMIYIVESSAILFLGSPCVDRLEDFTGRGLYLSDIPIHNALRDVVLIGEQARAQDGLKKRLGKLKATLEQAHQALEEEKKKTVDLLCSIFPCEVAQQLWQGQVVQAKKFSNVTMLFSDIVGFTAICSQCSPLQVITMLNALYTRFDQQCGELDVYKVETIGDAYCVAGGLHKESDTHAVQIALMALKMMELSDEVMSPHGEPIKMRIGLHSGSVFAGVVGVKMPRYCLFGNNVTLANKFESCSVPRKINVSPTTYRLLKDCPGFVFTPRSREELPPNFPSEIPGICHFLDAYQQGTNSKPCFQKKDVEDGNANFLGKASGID
T1 sequence (Q02153 1-619): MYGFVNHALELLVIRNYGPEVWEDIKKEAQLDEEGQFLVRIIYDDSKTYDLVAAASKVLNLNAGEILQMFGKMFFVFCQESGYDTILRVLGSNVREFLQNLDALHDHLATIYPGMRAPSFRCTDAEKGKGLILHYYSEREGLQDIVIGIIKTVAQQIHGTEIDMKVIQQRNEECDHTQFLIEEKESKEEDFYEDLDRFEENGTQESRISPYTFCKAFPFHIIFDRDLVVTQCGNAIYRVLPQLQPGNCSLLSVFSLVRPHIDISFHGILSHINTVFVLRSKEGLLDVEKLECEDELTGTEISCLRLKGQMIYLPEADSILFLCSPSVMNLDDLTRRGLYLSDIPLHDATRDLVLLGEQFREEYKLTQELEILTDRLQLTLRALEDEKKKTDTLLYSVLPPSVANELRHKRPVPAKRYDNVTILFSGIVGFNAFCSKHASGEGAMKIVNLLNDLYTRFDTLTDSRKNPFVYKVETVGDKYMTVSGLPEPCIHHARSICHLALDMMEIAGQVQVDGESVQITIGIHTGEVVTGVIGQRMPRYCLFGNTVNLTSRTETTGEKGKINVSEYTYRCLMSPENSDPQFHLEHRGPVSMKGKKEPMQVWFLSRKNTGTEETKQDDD
As to the kind of experiment: Cell-based sGC functional assay (CASA assay): cGMP generation in CHO-K1/sGC cells, HTRF detection. Particulars: for Emax: CHO-K1, percent activation relative to standard Compound A in CHO-K1/sGC cells, read-out: % Act.; for EC50: inflection point (IP) of cGMP generation in CHO-K1/sGC cells, 4P fit, activity expressed as percentage of Compound A. The gist of the method: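 cGMP was quantified by HTRF after 1 hr, 37° C exposure of thawed CHO-K1 cells expressing sGC α1/β1 to compound, with or without 1 μM DETA-NO. IBMX (0.5 mM) blocked cGMP breakdown, and DMSO was 2.5% final. Percent of standard Compound A's maximal cGMP was fitted (4P) for inflection point.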

Molecules are shown by their SMILES.

A word on the EC50: it is the concentration that produces a half-maximal response. High values mean a less potent agent, low ones a more potent agent.

In the case of `CC1(c2ccc(F)cn2)C(=O)Nc2nc(-c3cn4ccnc4c(C4CCC4)n3)nc(N)c21` (stereo not shown) [Example 27B, 4-amino-2-(8-cyclobutylimidazo[1,2-a]pyrazin-6-yl)-5-(5-fluoropyridin-2-yl)-5-methyl-5H-pyrrolo[2,3-d]pyrimidin-6(7H)-one], the Emax stood at 85% and it took 0.441 µM to reach a half-maximal effect (EC50).
The matching figures for `CC1(c2ccc(F)cc2)C(=O)Nc2nc(-c3cn4ccnc4c(C4CC4)n3)nc(N)c21` (stereo not shown) [Example 28A, 4-amino-2-(8-cyclopropylimidazo[1,2-a]pyrazin-6-yl)-5-(4-fluorophenyl)-5-methyl-5H-pyrrolo[2,3-d]pyrimidin-6(7H)-one]: 82% and 0.652 µM.
The matching figures for `CC1(C(=O)NC2CC2)C(=O)Nc2nc(-c3cn4ccnc4c(Cc4ccccc4F)n3)nc(N)c21` (stereo not shown) [Example 35A, 4-amino-N-cyclopropyl-2-(8-(2-fluorobenzyl)imidazo[1,2-a]pyrazin-6-yl)-5-methyl-6-oxo-6,7-dihydro-5H-pyrrolo[2,3-d]pyrimidine-5-carboxamide]: 129% and 0.016 µM.
On to `NC(=O)C1(C2CC2)C(=O)Nc2nc(-c3cn4ccnc4c(Cc4cccc(F)c4)n3)nc(N)c21` (stereo not shown) [Example 42B, 4-amino-5-cyclopropyl-2-(8-(3-fluorobenzyl)imidazo[1,2-a]pyrazin-6-yl)-6-oxo-6,7-dihydro-5H-pyrrolo[2,3-d]pyrimidine-5-carboxamide], for which the Emax turned out to be 103% and the EC50 turned out to be 0.032 µM.
The matching figures for `CC1(C(=O)NC2CC2)C(=O)Nc2nc(-c3cn4cc(C(F)(F)F)nc4c(Cc4cccc(F)c4F)n3)nc(N)c21` (stereo not shown) [Example 43A, 4-amino-N-cyclopropyl-2-(8-(2,3-difluorobenzyl)-2-(trifluoromethyl)imidazo[1,2-a]pyrazin-6-yl)-5-methyl-6-oxo-6,7-dihydro-5H-pyrrolo[2,3-d]pyrimidine-5-carboxamide]: 86% and 0.182 µM.
As for `Nc1nc(-c2cn3cc(C(F)(F)F)nc3c(Cc3cccc(F)c3)n2)nc2c1C(C(=O)NC1CC1)(C1CC1)C(=O)N2` (stereo not shown) [Example 44B, 4-amino-N,5-dicyclopropyl-2-(8-(3-fluorobenzyl)-2-(trifluoromethyl)imidazo[1,2-a]pyrazin-6-yl)-6-oxo-6,7-dihydro-5H-pyrrolo[2,3-d]pyrimidine-5-carboxamide], the Emax came to 88% and the half-maximal effective concentration (EC50) is 0.286 µM.
`Nc1nc(-c2cn3cc(C(F)(F)F)nc3c(Cc3ccccc3F)n2)nc2c1C(C(=O)NC1CC1)(C1CC1)C(=O)N2` (stereo not shown) [Example 45A, 4-amino-N,5-dicyclopropyl-2-(8-(2-fluorobenzyl)-2-(trifluoromethyl)imidazo[1,2-a]pyrazin-6-yl)-6-oxo-6,7-dihydro-5H-pyrrolo[2,3-d]pyrimidine-5-carboxamide]: the Emax was determined as 86% and a half-maximal effect (EC50) was put at 0.668 µM.
In the case of `CC1(C(=O)NC2CC2)C(=O)Nc2nc(-c3cn4cc(C(F)(F)F)nc4c(Cc4cccc(F)c4)n3)nc(N)c21` (stereo not shown) [Example 46A, 4-amino-N-cyclopropyl-2-(8-(3-fluorobenzyl)-2-(trifluoromethyl)imidazo[1,2-a]pyrazin-6-yl)-5-methyl-6-oxo-6,7-dihydro-5H-pyrrolo[2,3-d]pyrimidine-5-carboxamide], the Emax amounted to 124% and the EC50 worked out at 0.57 µM.
Taken in the same sequence, the figures for `CC1(C(=O)NC2CC2)C(=O)Nc2nc(-c3cn4cc(C(F)(F)F)nc4c(Cc4ccccc4F)n3)nc(N)c21` (stereo not shown) [Example 47B, 4-amino-N-cyclopropyl-2-(8-(2-fluorobenzyl)-2-(trifluoromethyl)imidazo[1,2-a]pyrazin-6-yl)-5-methyl-6-oxo-6,7-dihydro-5H-pyrrolo[2,3-d]pyrimidine-5-carboxamide] were 118% and 0.735 µM.
As to `Nc1nc(-c2cn3cc(C(F)(F)F)nc3c(Cc3cccc(F)c3F)n2)nc2c1C(C(=O)NC1CC1)(C1CC1)C(=O)N2` (stereo not shown) [Example 48B, 4-amino-N,5-dicyclopropyl-2-(8-(2,3-difluorobenzyl)-2-(trifluoromethyl)imidazo[1,2-a]pyrazin-6-yl)-6-oxo-6,7-dihydro-5H-pyrrolo[2,3-d]pyrimidine-5-carboxamide], the Emax turned out to be 93% and the response was half-maximal at 0.442 µM (EC50).
`Nc1nc(-c2cn3cc(C(F)(F)F)nc3c(Cc3ccc(F)cc3)n2)nc2c1C(C(=O)NC1CC1)(C1CC1)C(=O)N2` (stereo not shown) [Example 50B, 4-amino-N,5-dicyclopropyl-2-(8-(4-fluorobenzyl)-2-(trifluoromethyl)imidazo[1,2-a]pyrazin-6-yl)-6-oxo-6,7-dihydro-5H-pyrrolo[2,3-d]pyrimidine-5-carboxamide]: the Emax worked out at 86% and it took 0.829 µM to reach a half-maximal effect (EC50).
As for `Nc1nc(-c2cn3cc(C(F)(F)F)nc3c(Cc3ccccc3)n2)nc2c1C(C(=O)NC1CC1)(C1CC1)C(=O)N2` (stereo not shown) [Example 51A, 4-amino-2-(8-benzyl-2-(trifluoromethyl)imidazo[1,2-a]pyrazin-6-yl)-N,5-dicyclopropyl-6-oxo-6,7-dihydro-5H-pyrrolo[2,3-d]pyrimidine-5-carboxamide], the Emax came to 93% and the EC50 was 0.89 µM.
The matching figures for `CC1(C(=O)NC2CC2)C(=O)Nc2nc(-c3cn4cc(C(F)(F)F)nc4c(Cc4ccc(F)c(F)c4)n3)nc(N)c21` (stereo not shown) [Example 52A, 4-amino-N-cyclopropyl-2-(8-(3,4-difluorobenzyl)-2-(trifluoromethyl)imidazo[1,2-a]pyrazin-6-yl)-5-methyl-6-oxo-6,7-dihydro-5H-pyrrolo[2,3-d]pyrimidine-5-carboxamide]: 93% and 0.95 µM.
The matching figures for `Nc1nc(-c2cn3ccnc3c(CCC(F)(F)C(F)(F)F)n2)nc2c1C(c1nnc(C3CC3)s1)(C1CC1)C(=O)N2` (stereo not shown) [Example 54A, 4-amino-5-cyclopropyl-5-(5-cyclopropyl-1,3,4-thiadiazol-2-yl)-2-(8-(3,3,4,4,4-pentafluorobutyl)imidazo[1,2-a]pyrazin-6-yl)-5H-pyrrolo[2,3-d]pyrimidin-6(7H)-one]: 91% and 0.144 µM.
The matching figures for `CC(C)c1nnc(C2(C3CC3)C(=O)Nc3nc(-c4cn5ccnc5c(CCC(F)(F)C(F)(F)F)n4)nc(N)c32)s1` (stereo not shown) [Example 55A, 4-amino-5-cyclopropyl-5-(5-isopropyl-1,3,4-thiadiazol-2-yl)-2-(8-(3,3,4,4,4-pentafluorobutyl)imidazo[1,2-a]pyrazin-6-yl)-5H-pyrrolo[2,3-d]pyrimidin-6(7H)-one]: 93% and 0.634 µM.
Regarding `Nc1nc(-c2cn3ccnc3c(CCC(F)(F)C(F)(F)F)n2)nc2c1C(c1nnc(C3CC3)o1)(C1CC1)C(=O)N2` (stereo not shown) [Example 56B, 4-amino-5-cyclopropyl-5-(5-cyclopropyl-1,3,4-oxadiazol-2-yl)-2-(8-(3,3,4,4,4-pentafluorobutyl)imidazo[1,2-a]pyrazin-6-yl)-5H-pyrrolo[2,3-d]pyrimidin-6(7H)-one], the Emax worked out at 89% and the half-maximal effective concentration (EC50) worked out at 0.772 µM.
For `Cc1nnc(C2(C)C(=O)Nc3nc(-c4cn5ccnc5c(CCC(F)(F)C(F)(F)F)n4)nc(N)c32)o1` (stereo not shown) [Example 57A, 4-amino-5-methyl-5-(5-methyl-1,3,4-oxadiazol-2-yl)-2-(8-(3,3,4,4,4-pentafluorobutyl)imidazo[1,2-a]pyrazin-6-yl)-5H-pyrrolo[2,3-d]pyrimidin-6(7H)-one], the Emax came to 101% and the midpoint of the response, the EC50, lay at 0.92 µM.

These data come from patent US9796733B2, “Imidazo-pyrazine derivatives useful as soluble guanylate cyclase activators” (Merck Sharp & Dohme Corp., priority 2014, dated 2017).
